Data taken from patent US20180110777A1, “METHOD FOR REGULATION OF TELOMERE LENGTH” (The Johns Hopkins University, priority 2015, published 2018).
“Also recorded” adds a separate entry of the source.

Legend:
SL13 cells = test: Bulk telomere length, Southern blot, SL13 long-term culture; type: cell-based, mouse
Source text: ATM has been proposed to play different roles in signaling telomere dysfunction in human and mouse cells. Since it is not yet clear whether the damage signaling is mechanistically linked to telomere elongation, and given the discrepant reports of the role of ATM in human telomere length, the role of ATM in human cells was revisited.
As an independent test of Olaparib on telomere length, telomeres were examined by Southern blot in cultured SL13 cells grown in the presence of Olaparib for an extended time. […] Taken together, the experiments described here indicate that inhibition of ATM blocks telomere elongation while activation of ATM stimulates telomere elongation.
Telomere lengths of SL13 cells treated with 10 μM KU55933 were measured at different population doublings (PD) using genomic Southern blot analysis. […] Boxed numbers indicate the pixel positions corresponding to the blot.
To examine the in vivo chr4 cleavage, genomic DNA of SL13 treated with doxycycline for various time points was extracted using the Puregene™ Core Kit A (Qiagen) and digested with NcoI restriction enzyme (NEB). […] Labeled probe was counted and 10^6 counts/ml (probe) or 10^4 counts/ml (2-log ladder) was denatured at 100° C. for 5 minutes and added to the pre-hybridization solution and hybridized overnight at 42° C. […]

telomerase = biological target: T1, telomerase (Homo sapiens, UniProt O14746); test: Direct telomerase activity assay in lysates of treated cells; type: cell-based; conditions: 293TREx-0611 cells; 30 μM KU55933 or 5 μM Olaparib for two hours
T1 construct: expressed in transfected cells; host or cells: 293TREx-0611 cells overexpressing TPP1, POT1 and hTERT, transfected with U1-hTR; whole cell lysate
Procedure: Telomerase is known to be phosphorylated, so whether the KU55933 or Olaparib treatment of cells might directly affect telomerase activity was examined. […] ATM kinase is a positive regulator of telomere elongation in both mouse and human cells, and the effects of ATM inhibition are not due to inhibition of telomerase enzyme activity.
Telomerase activity was assayed in whole cell lysates with a modified protocol (Nandakumar et al., 2012, Nature 492, 285-289). 293TREx-0611 cells overexpressing TPP1, POT1, and hTERT were seeded (3×10^5 cells) per well in a poly-D-Lysine coated 6-well plate. The next day, cells were transfected with U1-hTR using Lipofectamine™ 3000 and incubated overnight. Then, they were treated with 30 μM KU55933, 5 μM Olaparib, or DMSO for two hours before harvesting in 100 μl 1×CHAPS. Cells were lysed on ice for 30 minutes, vortexing occasionally, and cleared by spinning (8000 rpm, 20 min, 4° C.). For negative controls, 25 μl cleared lysate was incubated at 65° C. with 1 μl RNaseA (1 mg/ml) for 10 minutes. For direct telomerase assays, lysates were incubated with primer a5 (Wang et al., 2007) in 1× telomerase buffer (50 mM Tris-Cl, 30 mM KCl, 1 mM MgCl2, 1 mM spermidine), 0.5 mM dTTP, 0.5 mM dATP, 2.92 μM dGTP, and 0.33 μM α32P-dGTP at 30° C. Reactions were stopped at 10 or 15 minutes with 20 mM EDTA, 10 mM Tris spiked with 500 cpm end-labeled 18mer. […]

T1 sequence (O14746 whole entry): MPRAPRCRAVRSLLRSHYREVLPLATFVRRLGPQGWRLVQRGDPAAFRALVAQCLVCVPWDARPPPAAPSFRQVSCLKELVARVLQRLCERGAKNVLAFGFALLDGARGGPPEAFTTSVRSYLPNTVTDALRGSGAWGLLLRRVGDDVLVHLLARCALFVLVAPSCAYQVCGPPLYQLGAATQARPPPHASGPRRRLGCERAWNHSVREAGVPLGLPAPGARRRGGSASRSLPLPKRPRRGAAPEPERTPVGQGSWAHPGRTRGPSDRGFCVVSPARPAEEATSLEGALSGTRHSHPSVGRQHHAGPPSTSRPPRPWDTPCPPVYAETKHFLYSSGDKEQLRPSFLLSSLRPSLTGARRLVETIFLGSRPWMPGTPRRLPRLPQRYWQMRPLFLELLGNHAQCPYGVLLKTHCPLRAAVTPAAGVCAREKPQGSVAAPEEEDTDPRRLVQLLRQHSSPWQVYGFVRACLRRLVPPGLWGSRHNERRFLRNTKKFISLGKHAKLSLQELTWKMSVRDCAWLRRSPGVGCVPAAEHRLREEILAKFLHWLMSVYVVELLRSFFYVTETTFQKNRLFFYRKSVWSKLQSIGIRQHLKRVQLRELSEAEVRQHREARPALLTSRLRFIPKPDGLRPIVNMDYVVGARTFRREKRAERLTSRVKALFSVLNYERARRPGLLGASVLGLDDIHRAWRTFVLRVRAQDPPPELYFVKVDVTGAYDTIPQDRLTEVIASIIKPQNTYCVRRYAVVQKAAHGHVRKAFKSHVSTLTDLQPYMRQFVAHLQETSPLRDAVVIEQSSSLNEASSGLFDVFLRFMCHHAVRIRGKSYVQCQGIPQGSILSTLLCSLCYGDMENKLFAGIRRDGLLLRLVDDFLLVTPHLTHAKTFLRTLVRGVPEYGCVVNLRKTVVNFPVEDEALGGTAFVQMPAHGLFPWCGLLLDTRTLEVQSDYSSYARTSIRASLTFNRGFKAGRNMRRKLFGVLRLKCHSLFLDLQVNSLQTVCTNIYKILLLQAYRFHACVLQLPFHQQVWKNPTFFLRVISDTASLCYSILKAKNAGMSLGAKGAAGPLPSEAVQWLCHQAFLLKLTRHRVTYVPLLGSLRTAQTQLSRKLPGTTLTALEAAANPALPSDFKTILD
T1 sequence (O60832 whole entry partner): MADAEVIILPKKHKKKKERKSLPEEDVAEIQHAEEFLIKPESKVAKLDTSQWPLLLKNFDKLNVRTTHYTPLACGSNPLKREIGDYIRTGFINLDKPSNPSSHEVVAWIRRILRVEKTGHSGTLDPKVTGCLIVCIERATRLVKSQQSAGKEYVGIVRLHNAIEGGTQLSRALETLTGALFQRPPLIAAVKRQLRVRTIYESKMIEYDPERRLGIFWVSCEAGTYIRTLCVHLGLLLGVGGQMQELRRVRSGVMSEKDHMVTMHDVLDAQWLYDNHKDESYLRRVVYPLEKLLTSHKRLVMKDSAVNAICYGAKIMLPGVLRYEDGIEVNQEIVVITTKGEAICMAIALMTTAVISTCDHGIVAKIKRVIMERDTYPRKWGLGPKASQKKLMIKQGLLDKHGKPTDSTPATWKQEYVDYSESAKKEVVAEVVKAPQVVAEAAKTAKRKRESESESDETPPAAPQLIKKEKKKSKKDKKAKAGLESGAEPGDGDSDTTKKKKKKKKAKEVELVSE
T1 sequence (Q9NPE3 whole entry partner): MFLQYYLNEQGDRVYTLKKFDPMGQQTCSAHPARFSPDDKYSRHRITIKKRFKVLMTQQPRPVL
T1 sequence (Q9NX24 whole entry partner): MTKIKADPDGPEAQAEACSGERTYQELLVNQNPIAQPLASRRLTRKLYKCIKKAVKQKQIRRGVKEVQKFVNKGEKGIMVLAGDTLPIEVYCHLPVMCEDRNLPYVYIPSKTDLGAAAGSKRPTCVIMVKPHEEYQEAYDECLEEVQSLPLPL
T1 sequence (Q9NY12 whole entry partner): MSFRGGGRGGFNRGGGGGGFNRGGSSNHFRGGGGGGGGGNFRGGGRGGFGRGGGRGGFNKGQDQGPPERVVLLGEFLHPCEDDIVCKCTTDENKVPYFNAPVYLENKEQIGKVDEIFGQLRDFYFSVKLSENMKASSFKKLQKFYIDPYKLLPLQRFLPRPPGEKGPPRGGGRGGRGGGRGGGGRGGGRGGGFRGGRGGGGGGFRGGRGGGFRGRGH

Row | SMILES | bulk telomere length (SL13 cells; SL13 cells grown in 10 μM KU55933, different population doublings) | telomerase activity (telomerase) | telomere length by Southern blot (SL13 cells; SL13 cells grown in presence of Olaparib for 55 population doublings)
1 | O=c1cc(-c2cccc3c2Sc2ccccc2S3)oc(N2CCOCC2)c1 [KU55933] | telomere shortening also occurred, although at a somewhat slower rate | no change in telomerase activity | –
2 | O=C(c1cc(Cc2n[nH]c(=O)c3ccccc23)ccc1F)N1CCN(C(=O)C2CC2)CC1 [Olaparib] | – | no change in telomerase activity | Telomere length gradually increased; also recorded: gradually increased after 25 PDs
